Results reported in patent publication US20110263677A1, “GOS2 MODULATORS IN THE TREATMENT OF ACNE, OF SEBORRHOEIC DERMATITIS OR OF HYPERSEBORRHOEA” (Galderma Research & Development, priority 2008, published 2011).

Columns and labels:
GOS2 [1] = conditions: mouse liver; Zandbergen et al., 2005; cited from earlier work
GOS2 [2] = assay: Real-time PCR gene expression in rat epidermal split containing sebaceous glands after topical treatment: GOS2; format: in vivo; conditions: topical administration, 0.3% in acetone, 96 hours
Method: (§1) Strain: OFA-SD (SPF Caw),
(§2) Number per batch: 40 (8 animals per group) Treatment: Route of administration: topical
(§3) Compound/batch: PPARgamma agonist (rosiglitazone)
(§4) Method of evaluation: The animals are weighed at the beginning and at the end of the study. Skin biopsies are taken (6 samples of skin excised per rat) in order to analyse the expression of the genes (RNA extraction, reverse transcriptase and real-time PCR). The samples are stored overnight at 4° C. before incubation in 1M sodium bromide (NaBr) for 2 hours at 37° C. After incubation, the samples are separated into epidermis or dermis. The epidermal samples are stored at […]. Under these conditions, the sebaceous glands are in the epidermal split. PCRs are carried out, beginning with the cDNAs originating from the epidermal splits containing sebaceous glands from control rats or rats treated with the PPARγ agonist: the mRNA is extracted using a column and quantified. The quality of mRNAs is measured and is represented by the 18S/28S ratio. The results are standardized with respect to 18S, expressed as relative induction versus untreated animals (carrier group). The statistical analysis is obtained using internal software based on a modified Monte Carlo statistical analysis.

ACTB (standardizer 2) = assay: Real-time PCR gene expression in rat epidermal split containing sebaceous glands after topical treatment: ACTB; format: in vivo; conditions: topical administration, 0.3% in acetone, 96 hours
Method: as §1, §2, §3, §4

PPARG (reference gene) = assay: Real-time PCR gene expression in rat epidermal split containing sebaceous glands after topical treatment: PPARG; format: in vivo; conditions: topical administration, 0.3% in acetone, 96 hours
Method: as §1, §2, §3, §4

PPARG = assay: as above; format: in vivo; conditions: topical administration, 0.3% in acetone, 96 hours, versus carrier group
Method: as §1, §2, §3, §4

HPRT1 (standardizer 1) = assay: Real-time PCR gene expression in rat epidermal split containing sebaceous glands after topical treatment: HPRT1; format: in vivo; conditions: topical administration, 0.3% in acetone, 96 hours
Method: as §1, §2, §3, §4

| SMILES | expression of GOS2 (marker for PPARalpha) (GOS2 [1]) | Variation versus carrier after standardization (ΔΔCt) (GOS2 [2]) | Relative induction (GOS2 [2]; versus carrier group) | Variation versus carrier after standardization (ΔΔCt) (ACTB (standardizer 2)) | Relative induction (ACTB (standardizer 2); versus carrier group) | Variation versus carrier after standardization (ΔΔCt) (PPARG (reference gene)) | Relative induction (PPARG) | Variation versus carrier after standardization (ΔΔCt) (HPRT1 (standardizer 1)) | Relative induction (HPRT1 (standardizer 1); versus carrier group) |
| --- | --- | --- | --- | --- | --- | --- | --- | --- | --- |
| Cc1cccc(Nc2cc(Cl)nc(SCC(=O)O)n2)c1C [Wy14643] | induced | – | – | – | – | – | – | – | – |
| COCCOCOc1ccc2cc(C(=O)N(C)Cc3cccc(-c4ccc(CC5SC(=O)NC5=O)cc4)c3)ccc2c1 (stereo not drawn) [PPARgamma agonist, 6-(2-methoxyethoxy-methoxy)naphthalene-2-carboxylic acid [4′-(2,4-dioxothiazolidin-5-ylmethyl)biphenyl-3-ylmethyl]methylamide] | – | 2.36 | 5.24 | 0.23 | 1.18 | 0.72 | 1.65 | −0.07 | −1.05 |
